Measured values published in ChEMBL document CHEMBL1133205, “Synthesis and biological properties of new glycosidic cationic lipids for DNA delivery” (2000).
Active and inactive are the calls of the source. The rule behind the calls is not given here.

What was measured:
NIH3T3 = experiment: Transfection efficiency of compound in delivering a plasmid bearing the sequence of luciferase gene as ratio of nM of vector/ug of DNA in NIH3T3 cells; assay type: functional, Mus musculus
HeLa [1] = experiment: Transfection efficiency of compound in delivering a plasmid bearing the sequence of luciferase gene as ratio of nM of vector/ug of DNA in HeLa cells; assay type: functional, Homo sapiens
HeLa [2] = experiment: Transfection efficiency of compound in delivering a plasmid bearing the sequence of luciferase gene under the dependence of human cytomegalo virus promoter into HeLa cells was evaluated; Active; assay type: functional, cell-based
HeLa [3] = experiment: Transfection efficiency of compound in delivering a plasmid bearing the sequence of luciferase gene under the dependence of human cytomegalo virus promoter into HeLa cells was evaluated; Inactive; assay type: functional, cell-based

SMILES | Activity (NIH3T3) | Activity (HeLa [1]) | Activity (HeLa [2]) | Activity (HeLa [3])
CCCCCCCCCCCCCCCCCCN(CCCCCCCCCCCCCCCCCC)C(=O)CCC(=O)OC[C@H]1O[C@H](OC)[C@H](OCCN)[C@@H](OCCN)[C@H]1OCCN | 12 (nM of vector) (ug of DNA)-1 | 8 (nM of vector) (ug of DNA)-1 | Active | 
CCCCCCCCCCCCCCCCCCN(CCCCCCCCCCCCCCCCCC)C(=O)CCC(=O)OC[C@H]1O[C@H](OC)[C@H](OC(=O)CN)[C@@H](OC(=O)CN)[C@H]1OC(=O)CN |  |  |  | inactive
CCCCCCCCCCCCCCCCCCN(CCCCCCCCCCCCCCCCCC)C(=O)c1ccccc1C(=O)OC[C@H]1O[C@H](OC)[C@H](OCCN)[C@@H](OCCN)[C@H]1OCCN | 12 (nM of vector) (ug of DNA)-1 | 8 (nM of vector) (ug of DNA)-1 | Active | 
CCCCCCCCCCCCCCCCCCN(CCCCCCCCCCCCCCCCCC)C(=O)c1ccccc1C(=O)OC[C@H]1O[C@H](OC)[C@H](OC(=O)CN)[C@@H](OC(=O)CN)[C@H]1OC(=O)CN |  |  |  | inactive
